Reference: ChEMBL document CHEMBL1141499, “Imidazopyridines: a novel class of hNav1.7 channel blockers” (Bioorg Med Chem Lett, 2008)

Legend:
[1] = Bioavailability in Sprague-Dawley rat at 3.0 mg/kg, po; assay type: ADME, organism-based; conditions: in vivo
[2] = Plasma clearance in Sprague-Dawley rat at 1.0 mg/kg, iv or 3.0 mg/kg, po; assay type: ADME, organism-based

SMILES	bioavailability [1] [%]	clearance [2] [mL/min/kg]
C[C@@H](c1ccccc1)n1c(CNC(=O)[C@@H](Cc2ccccc2C(F)(F)F)NC(=O)OC(C)(C)C)nc2cccnc21	36	21
CC(C)(C)OC(=O)N[C@H](Cc1ccccc1C(F)(F)F)C(=O)NCc1nc2cccnc2n1C(C)(C)C	31	36
CC(C)(C)OC(=O)N[C@H](Cc1ccccc1C(F)(F)F)C(=O)NCc1nc2cccnc2n1CC(F)(F)F	7	113
CC(C)(C)OC(=O)N[C@H](Cc1ccccc1F)C(=O)NCc1nc2cccnc2n1C1(c2ccccc2)CC1	47	7.5
CC(C)(C)OC(=O)N[C@H](Cc1ccccc1C(F)(F)F)C(=O)NCc1nc2cccnc2n1CC(F)(F)C(F)(F)F	10	87
O=C(NCc1nc2cccnc2n1C1(c2ccccc2)CC1)[C@@H](Cc1ccccc1Cl)NC(=O)C1(C(F)(F)F)CC1	78	9.3
CC(C)(C)OC(=O)N[C@H](Cc1ccccc1C(F)(F)F)C(=O)NCc1nc2cccnc2n1Cc1ccccc1	41	15
CC(C)(C)OC(=O)N[C@H](Cc1ccccc1C(F)(F)F)C(=O)NCc1nc2cccnc2n1C1(c2ccccc2)CC1	44	3
CC(C)(C)OC(=O)N[C@H](Cc1ccccc1C(F)(F)F)C(=O)NCc1nc2cccnc2n1CC1CC1	25	114
CC(C)(C)Cn1c(CNC(=O)[C@@H](Cc2ccccc2C(F)(F)F)NC(=O)OC(C)(C)C)nc2cccnc21	17	64
C[C@H](c1ccccc1)n1c(CNC(=O)[C@@H](Cc2ccccc2C(F)(F)F)NC(=O)OC(C)(C)C)nc2cccnc21	57	22
O=C(NCc1nc2cccnc2n1C1(c2ccccc2)CC1)[C@@H](Cc1c(F)ccc(F)c1F)NC(=O)C1(C(F)(F)F)CC1	85	6.6
O=C(NCc1nc2cccnc2n1C1(c2ccccc2)CC1)[C@@H](Cc1c(F)cccc1F)NC(=O)C1(C(F)(F)F)CC1	54	4.2
